According to PubChem BioAssay AID328 (DTP/NCI, 2004):
Where “and” joins values, the source holds several entries; their conditions need not be identical. Equal entries are not always repeated. Toxic doses and inconclusive results are not listed. The calls were made as follows: active = survival T/C of 150% or more; inactive = T/C below 125% in these data.

System: BDF1 mice, P388 leukemia ip, median survival T/C
Assay: NCI In Vivo Anticancer Drug Screen. Data for tumor model P388 Leukemia (intraperitoneal) in B6D2F1 (BDF1) mice
Conditions: endpoint: median survival time, higher = longer survival
How it was run: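 Each value expresses how treatment altered survival: treated-mouse outcome over vehicle-mouse outcome, both groups bearing the transplanted tumour.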

[1] = dose: 100.0 mg/kg/injection, schedule: Q01DX009 (ip), vehicle: Klucel (hydroxypropylcellulose) (HPC)
[2] = dose: 100.0 mg/kg/injection, schedule: Q04DX003 (ip), vehicle: saline with Tween-80
[3] = dose: 200.0 mg/kg/injection, schedule: Q04DX003 (ip), vehicle: saline with Tween-80
[4] = dose: 400.0 mg/kg/injection, schedule: Q04DX003 (ip), vehicle: saline with Tween-80
[5] = dose: 100.0 mg/kg/injection, schedule: Q01DX009 (ip), vehicle: saline with Tween-80
[6] = dose: 200.0 mg/kg/injection, schedule: Q01DX009 (ip), vehicle: saline with Tween-80
[7] = dose: 50.0 mg/kg/injection, schedule: Q01DX009 (ip), vehicle: Klucel (hydroxypropylcellulose) (HPC)

Measured: T/C

N#Cc1ccc(/C=C/C(=O)c2ccccc2)cc1
inactive: [1] 91 % of control | dose: 200.0 mg/kg/injection, schedule: Q01DX009 (ip), vehicle: Klucel (hydroxypropylcellulose) (HPC) 116 % of control | dose: 400.0 mg/kg/injection, schedule: Q01DX009 (ip), vehicle: Klucel (hydroxypropylcellulose) (HPC) 107 % of control

O=C1CCC(=O)N1CC(O)COc1ccc(Cl)cc1 (stereo not given)
inactive: [2] 100 % of control | [3] 95 % of control | [4] 100 % of control

CCS(=O)(=O)CC
inactive: dose: 100.0 mg/kg/injection, schedule: Q04DX003 (ip), vehicle: saline sonified 95 % of control | dose: 200.0 mg/kg/injection, schedule: Q04DX003 (ip), vehicle: saline sonified 100 % of control | dose: 400.0 mg/kg/injection, schedule: Q04DX003 (ip), vehicle: saline sonified 100 % of control

CCN(CC)CCCNc1ncnc2onc(-c3ccccc3)c12
inactive: dose: 50.0 mg/kg/injection, schedule: Q01DX009 (ip), vehicle: other 107 % of control | dose: 100.0 mg/kg/injection, schedule: Q01DX009 (ip), vehicle: other 105 % of control | dose: 200.0 mg/kg/injection, schedule: Q01DX009 (ip), vehicle: other 96 % of control

CCC(C)C(=O)/C=C/c1ccccc1 (stereo not given)
inactive: dose: 50.0 mg/kg/injection, schedule: Q01DX009 (ip), vehicle: saline with Tween-80 96 % of control | [5] 107 % of control | [6] 114 % of control

O=C(C[n+]1cc2ccccc2c2ccccc21)c1ccccc1
inactive: dose: 25.0 mg/kg/injection, schedule: Q01DX009 (ip), vehicle: Klucel (hydroxypropylcellulose) (HPC) 104 % of control | dose: 35.0 mg/kg/injection, schedule: Q01DX009 (ip), vehicle: Klucel (hydroxypropylcellulose) (HPC) 100 % of control and 108 % of control | [7] 100 % of control and 120 % of control | dose: 75.0 mg/kg/injection, schedule: Q01DX009 (ip), vehicle: Klucel (hydroxypropylcellulose) (HPC) 115 % of control | [1] 114 % of control

CC/C(=C(\CC)c1ccc(OCCN(CC)CC)cc1)c1ccc(OCCN(CC)CC)cc1
inactive: dose: 12.5 mg/kg/injection, schedule: Q01DX010 (ip), vehicle: carboxymethylcellulose (CMC) 100 % of control | dose: 25.0 mg/kg/injection, schedule: Q01DX010 (ip), vehicle: carboxymethylcellulose (CMC) 105 % of control

Nc1nc(N)c2nc(SC34CC5CC(CC(C5)C3)C4)c(N)nc2n1
inactive: [2] 97 % of control | [3] 88 % of control | [4] 94 % of control

O=C(CSc1ncnc2nc[nH]c12)c1ccccc1
inactive: [5] 104 % of control | [2] 86 % of control | [6] 104 % of control | [3] 100 % of control | dose: 400.0 mg/kg/injection, schedule: Q01DX009 (ip), vehicle: saline with Tween-80 100 % of control | [4] 91 % of control

Cc1cc(=O)cc(C(=O)O)o1
inactive: dose: 25.0 mg/kg/injection, schedule: Q04DX003 (ip), vehicle: saline 113 % of control | dose: 50.0 mg/kg/injection, schedule: Q04DX003 (ip), vehicle: saline 100 % of control | dose: 100.0 mg/kg/injection, schedule: Q04DX003 (ip), vehicle: saline 90 % of control

CC[N+](CC)(CC)CCCC[N+](CC)(CC)CC
inactive: dose: 12.5 mg/kg/injection, schedule: Q01DX009 (ip), vehicle: water 97 % of control | dose: 25.0 mg/kg/injection, schedule: Q01DX009 (ip), vehicle: water 95 % of control | dose: 25.0 mg/kg/injection, schedule: Q04DX003 (ip), vehicle: water 109 % of control | dose: 50.0 mg/kg/injection, schedule: Q01DX009 (ip), vehicle: water 100 % of control | dose: 50.0 mg/kg/injection, schedule: Q04DX003 (ip), vehicle: water 104 % of control

O=C1C=C(Cl)C(=O)C2=C1CCCC2
inactive: dose: 0.39 mg/kg/injection, schedule: Q04DX002 (ip), vehicle: saline 92 % of control | dose: 0.78 mg/kg/injection, schedule: Q04DX002 (ip), vehicle: saline 97 % of control | dose: 1.56 mg/kg/injection, schedule: Q04DX002 (ip), vehicle: saline with Tween-80 96 % of control | dose: 1.56 mg/kg/injection, schedule: Q04DX002 (ip), vehicle: saline 101 % of control

Cc1cc(C)c(-c2c(C)cc(C)c(C(=O)c3ccc([N+](=O)[O-])cc3)c2C)c(C)c1C(=O)c1ccc([N+](=O)[O-])cc1
inactive: dose: 3.0 mg/kg/injection, schedule: Q01DX009 (ip), vehicle: Klucel (hydroxypropylcellulose) (HPC) 100 % of control | dose: 6.0 mg/kg/injection, schedule: Q01DX009 (ip), vehicle: Klucel (hydroxypropylcellulose) (HPC) 100 % of control | dose: 12.0 mg/kg/injection, schedule: Q01DX009 (ip), vehicle: Klucel (hydroxypropylcellulose) (HPC) 95 % of control | [7] 92 % of control | dose: 100.0 mg/kg/injection, schedule: Q04DX003 (ip), vehicle: Klucel (hydroxypropylcellulose) (HPC) 95 % of control | dose: 200.0 mg/kg/injection, schedule: Q04DX003 (ip), vehicle: Klucel (hydroxypropylcellulose) (HPC) 100 % of control | dose: 400.0 mg/kg/injection, schedule: Q04DX003 (ip), vehicle: Klucel (hydroxypropylcellulose) (HPC) 100 % of control
